Experiment: Relaxivity measurement, 1.0 T MRI scanner
Format: physicochemical
Conditions: room temperature
Description: A relaxivity study was performed by evaluating the longitudinal relaxation time T1 of HP—Au—Gd nanoparticles at different Gd concentrations at room temperature by using a 1.0 T-MRI scanner (ICON, Bruker Biospin, Ettlingen, Germany). The commercially available gadolinium contrast agent (Gadopentetic acid or Gd-DTPA) was used as the positive control. The contrast agents were initially placed into syringes and set in the center of the volume coil. The sample temperature was maintained at room temperature. By using the MRI scanner, horizontal single-slice T1-weighted MR images were acquired (spin echo, TR/TE=400/10 ms, slice thickness=2.0 mm, matrix=256×256, field of view (FOV)=38.4×38.4 mm, number of averages (NA)=10, number of slices=1). Horizontal single-slice inversion-recovery MRI was done to calculate the T1 and r1 by using rapid acquisition with relaxation enhancement (RARE) acquisition (TR=20,000 ms, TE=17 ms, inversion time=45, 100, 200, 400, 800, 1600, 3200, 6400, 8000, 10000, 12000 ms, matrix size=64×64, FOV=38.4×38.4 mm, slice thickness=2.0 mm, RARE factor=4, and NA=1). Then, the r1 relaxivities were calculated by using the following equation: r1=(1/T1-1/T1(0))/[Gd] where [Gd] is the concentration of Gd, and 1/T1(0) and 1/T1 are the longitudinal relaxation rate without and with paramagnetic species, respectively.

r1 relaxivity: 3.26 mM⁻¹ s⁻¹
Structure (SMILES): CNC[C@H](O)[C@@H](O)[C@H](O)[C@H](O)CO.CNC[C@H](O)[C@@H](O)[C@H](O)[C@H](O)CO.O=C([O-])CN(CCN(CC(=O)[O-])CC(=O)O)CCN(CC(=O)[O-])CC(=O)O.[Gd+3] [Gd-DTPA, Gadopentetic acid]

— patent US20230090223A1, “NANOPARTICLES FOR USE IN THE TREATMENT AND DIAGNOSIS OF CNS DISORDERS” (priority 2020, published 2023)
